Assay results as given in publication PMC10780244, “Antileishmanial Effect of 1,5- and 1,8-Substituted Fused Naphthyridines” (Molecules, 2023).

What was measured:
[1] = Cytotoxicity in uninfected murine splenic cells (alamarBlue); assay type: cell-based, mouse; details: mouse; uninfected splenic cells, 72 h, alamarBlue; read-out: Mouse Splenic Macrophages CC50
Description: Amastigotes obtained from mouse bone marrow cells were used to perform a first screening with the complete series of fused 1,5- and 1,8-naphthyridines. […] The toxicity of these selected compounds was assessed in non-infected splenic cells and the cytotoxic concentration (CC50) value obtained was used to calculate the selective index (SI). The oral tolerability of these same compounds was tested by calculating the viability of murine intestinal organoids exposed to two concentrations (50 and 25 µM). In order to assess the in vitro safety of the naphthyridines, cytotoxicity assays were carried out in ex vivo splenic explants from uninfected mice, which were prepared as previously described to obtain intramacrophagic amastigotes. Cells were seeded at a density of 1 × 10^6 cells per well in 96-well plates containing the prediluted compounds and incubated at 37 °C and 5% CO2 during 72 h. AlamarBlue assay (Invitrogen, Fisher Scientific, Waltham, MA, USA) was used to estimate cell viability following manufacturer’s recommendations. The assays were performed by triplicate. Absorbance of viable cells vs. compound concentrations were fitted by nonlinear analysis using the Sigma Plot 10.1 statistical package to calculate the cytotoxic concentration 50 (CC50) values. Selectivity index (SI) was calculated as the ratio between CC50 and the EC50 values of intramacrophagic amastigotes.

[2] = test system: intramacrophagic iRFP-L. infantum amastigotes from murine spleens; assay: Ex vivo intramacrophagic amastigote viability assay (iRFP fluorescence); assay type: cell-based, Leishmania infantum; details: for EC50: Leishmania infantum, ex vivo murine splenic explants, 72 h, read-out: Intracellular Amastigotes EC50; for SI: ratio CC50 (splenic macrophages) / EC50 (intramacrophagic amastigotes); for antileishmanial activity against Leishmania amastigotes (in words): summary in discussion
Description: (§1) The 1,5- and 1,8-fused naphthyridine derivatives were evaluated as antileishmanial agents in assays using two forms of L. infantum amastigotes: axenic amastigotes recovered from bone marrow cells of infected BALB/c mice and intramacrophagic amastigotes obtained from splenic explants of the same subjects. The L. infantum strain used is a genetically modified strain previously engineered by our group to constitutively express the infrared protein iRFP from Rhodopseudomonas palustris bacteriophytochrome (iRFP L. infantum). This strain allows monitoring the viability of both forms of the parasite by quantifying the fluorescence emitted at 700 nm by the iRFP protein produced by living amastigotes.
(§2) Amastigotes obtained from mouse bone marrow cells were used to perform a first screening with the complete series of fused 1,5- and 1,8-naphthyridines. […] The toxicity of these selected compounds was assessed in non-infected splenic cells and the cytotoxic concentration (CC50) value obtained was used to calculate the selective index (SI). The oral tolerability of these same compounds was tested by calculating the viability of murine intestinal organoids exposed to two concentrations (50 and 25 µM).
Intramacrophagic amastigotes were obtained by cutting spleens into small pieces that were incubated for 25 min with 0.5 mL of collagenase D (2 mg/mL) (Merck, Darmstadt, Germany) dissolved in 4.5 mL buffer (10 mM HEPES, pH 7.4, 150 mM NaCl, 5 mM KCl, 1 mM MgCl2 and 1.8 mM CaCl2). The cell suspension was filtered through a 100 µm cell strainer. After erythrocyte lysis (150 mM NH4Cl, 1 mM KHCO3, 0.1 mM EDTA), splenocytes were centrifuged three times at 500× g for 7 min at 4 °C, with PBS washes between each centrifugation. The splenocyte suspension containing intramacrophagic amastigotes was resuspended in RPMI medium (Gibco, Fisher Scientific, Waltham, MA, USA) supplemented with 20% FBS, 1 mM sodium pyruvate, 24 mM NaHCO3, 2 mM L-glutamine, 1× RPMI vitamins, 25 mM HEPES and antibiotic cocktail.
For the ex vivo intramacrophagic amastigote assay, 40 μL of one-half or one-third serial dilutions of each diluted in supplemented RPMI medium, were added to black 384-well optical-bottom black plates containing 40 μL of murine splenocytes obtained as described above. Positive controls (containing 10 μM of AMB) and negative controls (containing 0.1% v/v DMSO) were included. The plates were incubated at 37 °C and 5% CO2, for a maximum period of 72 h and the assays were performed by triplicate.
(§3) The viability of axenic and intramacrophage amastigotes was calculated measuring the fluorescence emitted at 700 nm by the iRFP protein from live parasites and recorded by an Odyssey infrared imaging system (Li-Cor, NE, USA). The fluorescence emitted by the negative control wells was considered 100% viability, whereas the fluorescence emitted by the positive control wells, was adjusted to 0% viability.
Fluorescence emitted by intramacrophage amastigotes were plotted against the drug concentration using the nonlinear fit analysis provided by the Sigma Plot 10.1 statistical package to obtain EC50 values.

[3] = test system: axenic iRFP-L. infantum amastigotes from bone marrow cells; assay: Axenic amastigote viability assay (iRFP fluorescence, first screening); assay type: cell-based; details: Leishmania infantum, Bone marrow cell, cut-off 25 µM, 72 h, read-out: Axenic Amastigotes (concentration with inhibition)
Description: as §1, §2
To obtain iRFP-L. infantum axenic amastigotes, femur and tibia were carefully cut at both ends, and marrow cells were removed by passing PBS through the medullary cavity with a 29G needle. The bone marrow cell suspension was filtered through a 100 µm cell strainer and centrifuged at 3500× g for 10 min at room temperature. After centrifugation, cells were resuspended in amastigote culture medium: 15 mM KCl; 136 mM KH2PO4; 10 mM K2HPO4·3H2O; 0.5 mM MgSO4. 7H2O; 24 mM NaHCO3; 22 mM glucose; 1 mM glutamine, 1xRPMI 1640 vitamin mix (Sigma-Aldrich, Merck, Darmstadt, Germany), 10 mM folic acid, 100 mM adenosine, 1xRPMI amino acid mix (Sigma-Aldrich, Merck, Darmstadt, Germany), 5 mg/mL hemin, antibiotic cocktail, 25 mM MES and 10% FBS, and incubated at 37 °C.
To test the antileishmanial effect of naphthyridines on axenic amastigotes, 40 μL of a suspension containing 3 × 10^4 iRFP-L. infantum parasites per well were incubated with another 40 μL of the drugs dilutions in amastigote culture medium with 7.5% FBS. Incubations were performed in 384-well black microtiter plates with an optical bottom at 37 °C and 5% CO2 for 72 h. Solutions of 0.1% (v/v) DMSO and 10 μM AMB were used as negative and positive controls, respectively. The assays were performed by triplicate.
as §3

Row | Structure (SMILES) | CC50 at 72 h [1] [µM] | EC50 [2] [µM] | SI [2] | minimal effective concentration [3] [µM] | antileishmanial activity against Leishmania amastigotes (in words) [2]
1 | O=C1Oc2ccccc2C2Nc3ccc(Br)nc3[C@@H](c3ccccc3)C12 (some centres unmarked) [Compound 6b] | 55.7 ± 6.42 | 12.9 ± 0.82 | 4.3 | < 25 | 
2 | COc1ccc2nc3c(c(-c4ccccc4)c2n1)c(=O)oc1ccccc13 [Compound 7c] | 97.7 ± 1.77 | 37 ± 2.87 | 2.6 | < 25 | 
3 | Cc1ccc(S(=O)(=O)N2CC3C(Nc4cccnc4[C@H]3c3ccccc3)c3ccccc32)cc1 (some centres unmarked) [Compound 8a] | 45 ± 3.91 | 5.3 ± 0.71 | 8.5 | < 25 | 
4 | COc1ccc2c(n1)[C@@H](c1ccccc1)C1CN(S(=O)(=O)c3ccc(C)cc3)c3ccccc3C1N2 (some centres unmarked) [Compound 8c] | > 100 | 4.93 ± 0.35 |  | < 25 | 
5 | Cc1ccc(S(=O)(=O)N2CC3C(Nc4ccc(Br)nc4[C@H]3c3ccccc3)c3ccccc32)cc1 (some centres unmarked) [Compound 8d] | > 50 | 34.4 ± 9.7 |  | < 25 | 
6 | Fc1ccc2c(c1)C1Nc3ncccc3[C@@H](c3ccccc3)C1CO2 (some centres unmarked) [Compound 10b] | 50.7 ± 0.99 | 7.57 ± 0.44 | 6.7 | < 25 | 
7 | c1ccc(-c2c3c(nc4ncccc24)-c2ccccc2OC3)cc1 [Compound 11a] | > 100 | 7.7 ± 0.29 |  | < 25 | 
8 | O=c1oc2ccccc2c2nc3ncccc3c(-c3ccccc3)c12 [Compound 13a] | 34.6 ± 1.79 | 10.6 ± 1.21 | 3.3 | < 25 | significant antileishmanial activity
9 | O=c1oc2ccccc2c2nc3ncc(Br)cc3c(-c3ccccc3)c12 [Compound 13b] | > 50 | 7.53 ± 0.97 | >6.6 | < 25 | 
10 | Cc1ccc(S(=O)(=O)N2CC3C(Nc4ncccc4C3c3ccccc3)c3ccccc32)cc1 (centres unmarked) [Compound 14a] | 27.2 ± 1.55 | 9.34 ± 0.77 | 2.9 | < 25 | significant antileishmanial activity
11 | Cc1ccc(S(=O)(=O)N2Cc3c(nc4ncc(Br)cc4c3-c3ccccc3)-c3ccccc32)cc1 [Compound 15b] | 24.6 ± 3.59 | 6.16 ± 0.54 | 4.0 | < 25 | significant antileishmanial activity
